The target in this assay is SnDHAD (Synechocystis sp. PCC 6803, UniProt P74689). Briefly: DHAD activity inhibition assay. Conditions: read-out: % inhibition at 0.5 mM. Format: biochemical.

Molecules are shown by their SMILES.

Broadly, the inhibition is the change of the read-out against control, counted positive when it falls.

Chain of SnDHAD (P74689 whole entry): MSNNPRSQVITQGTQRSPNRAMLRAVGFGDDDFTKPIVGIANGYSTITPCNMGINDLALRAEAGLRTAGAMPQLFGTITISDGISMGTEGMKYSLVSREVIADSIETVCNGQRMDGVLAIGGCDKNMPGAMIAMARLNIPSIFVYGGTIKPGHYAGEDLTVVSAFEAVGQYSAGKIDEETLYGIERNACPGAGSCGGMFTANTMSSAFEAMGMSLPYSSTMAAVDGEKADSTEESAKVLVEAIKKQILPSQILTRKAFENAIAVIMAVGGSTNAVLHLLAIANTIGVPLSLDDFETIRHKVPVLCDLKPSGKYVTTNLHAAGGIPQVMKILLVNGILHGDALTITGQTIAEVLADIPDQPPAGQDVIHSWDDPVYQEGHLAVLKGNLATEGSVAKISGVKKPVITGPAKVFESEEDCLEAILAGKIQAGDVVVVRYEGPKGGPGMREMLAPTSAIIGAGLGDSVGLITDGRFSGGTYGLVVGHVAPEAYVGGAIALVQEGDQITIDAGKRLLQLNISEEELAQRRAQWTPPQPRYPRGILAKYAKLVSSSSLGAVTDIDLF

In the case of `O=C(O)C(O)C(=O)O` [Tartronic acid], the inhibition at 500 µM was about 35%.

Source of the values: article PMC8162731 (ACS chemical biology, 2020).
